Experimental data published in patent publication US8226943B2, “Antibodies to notch receptors” (OncoMed Pharmaceuticals, Inc., priority 2008, dated 2012).

Tests used:
[1] = tested on: stroma of PE13 tumors; test: Microarray gene expression in stroma of treated xenograft tumors, PE13; type: in vivo, mice; settings: 59R1 vs control
[2] = tested on: M4 melanoma tumor cells; test: M4 melanoma xenograft growth; type: in vivo, NOD-SCID mice; settings: 10 mg/kg twice per week
Experimental: M4 melanoma tumor cells (10,000 cells per mouse) were injected subcutaneously into the flank region of NOD-SCID mice. Tumors were allowed to grow for 25 days until they had reached an average volume of ˜80 mm^3. Animals were randomized into treatment groups (n=10/group) and treatments were initiated. One group received a control antibody (1B711) at 10 mg/kg twice per week and one group received 59R1 at 10 mg/kg twice per week. Tumor volumes were measured on the indicated days.

[3] = tested on: hJAG2-induced Notch2 signaling; test: Luciferase reporter assay, hJAG2-induced Notch2 signaling in Hela cells; type: cell-based, human; settings: 40 μg/ml
Experimental: Luciferase reporter assays were used to assay the 59R1 antibody for its ability to block hDLL4-, hJAG1-, and hJAG2-induced Notch2 signaling.
Hela cells that stably overexpress human Notch2 were transiently transfected with firefly luciferase with a synthetic 8×CBS promoter, pSPORT6 MAML-1, and Renilla luciferase-CMV as a transfection control. Cells were incubated with either 200 ng of immobilized hJAG1 (R&D systems) or hJAG2 (R&D systems) for 16 hours and then assayed using Dual-Glo (Promega) according to the manufacturer's instructions. 59R1 IgG2 antibody was at a concentration of 40 μg/ml. The gamma secretase inhibitor (GSI) dibenzazepine (DBZ) was used as a control at 1 μM.

[4] = tested on: Colo-205 colon tumors and PE-13 breast tumors; test: Pimonidazole staining for hypoxic regions in treated tumors; type: in vivo, mice
Experimental: Staining for hypoxic regions was performed in Colo-205 colon tumors and PE-13 breast tumors that had been treated either with 59R1 IgG2 antibody or with 1B711 control antibody. The staining was performed as described in Ridgway et al., 2006, Nature 444:1083-1087. Briefly, to measure hypoxia, pimonidazole-hydrochloride (HypoxyProbe, NPI, Burlington, Mass.), which forms long-lived protein adducts at partial pressure of oxygen less than approximately 10 mm Hg, was injected intraperitoneally at 60 mg/kg 1 hr prior to sacrifice. Tumors were then processed for histological analysis, and tumor sections were stained using anti-pimonidazole antibody following manufacturer's protocol (NPI). Photographs were taken using a BX51 microscope (Olympus, Center Valley, Pa.).
AF594-conjugated goat anti-rat F(ab′)2 was used to detect anti-CD31 antibody and FITC-conjugated goat anti-rabbit antibody was used to detect anti-pimonidazole antibody.

[5] = tested on: stroma from the xenograft models Colo205, B29, B34, B44, PE13, T1, C8, and PN8; test: TaqMan analysis of stromal gene expression in xenograft models; type: in vivo, mice
Text: The expression levels in the stroma from the xenograft models Colo205, B29, B34, B44, PE13, T1 (without estrogen treatment), T1 (with estrogen treatment), C8, and PN8 of selected genes that had been identified in the microarray analysis as being regulated by treatment with 59R1 (heyl, notch3, rgs5, angpt1, and angpt2) were further analyzed by TaqMan® analysis. The results are shown in FIGS. 12A (heyl), 12B (notch3), 12C (rgs5), 12D (angpt1), and 12E (angpt2).

[6] = tested on: PN4 pancreatic tumor cells; test: PN4 pancreatic tumor xenograft growth; type: in vivo, NOD/SCID mice
Experimental: In another experiment, anti-Notch2/3 antibodies were tested for an effect on pancreatic tumor growth. NOD/SCID mice were injected with 30,000 PN4 pancreatic tumor cells sub-cu in the right flank, and tumors were allowed to grow until they had reached an average volume of 100 mm^3. Animals were randomized and dosing of anti-Notch2/3 antibody 59R1 or control antibody 1B711 was initiated. Antibodies were dosed at 15 mg/kg given once per week.
PN4 pancreatic tumor cells (50,000 cells per mouse) were injected subcutaneously into the flank region of Nod-Scid mice. Tumors were allowed to grow for 27 days until they had reached an average volume of ˜120 mm^3. Animals were randomized into four treatment groups (n=10/group) and treatments were initiated. One group received a control antibody (1B711) at 10 mg/kg twice per week; one group received gemcitabine at 40 mg/kg once per week plus the control antibody at 10 mg/kg twice per week; one group received 59R1 at 10 mg/kg twice per week, and the fourth group received the combination of 59R1 at 10 mg/kg twice per week and gemcitabine 40 mg/kg once per week. Tumor volumes were measured on the indicated days.

[7] = tested on: stroma of Colo205 tumors; test: Microarray gene expression in stroma of treated xenograft tumors, Colo205; type: in vivo, mice; settings: 59R1 vs control
Experimental: Gene expression levels in various xenograft tumor models treated with the 59R1 IgG2 antibody were analyzed by microarray analysis. Global gene expression profiling analysis was performed on Affymetrix HG-U133 plus 2.0 microarray (Affymetrix, Santa Clara, Calif.). Three independent RNA samples of xenograft whole tumors from the control and treatment groups were isolated and hybridized to the microarrays according to the manufacturer's instructions. Scanned array background adjustment and signal intensity normalization were performed with GCRMA algorithm in the open-source bioconductor software (www.bioconductor.org). The expression level of each gene was normalized by z-score transformation across the samples in the control (CTRL) and treatment (59R1) groups.

[8] = tested on: murine Notch3; test: DLL4-Fc induced receptor activation in transfected PC3 cells, murine Notch3; type: cell-based, mouse; settings: immobilized DLL4-Fc
Experimental: 59R5 was determined to have similar activity in blocking Notch2 and Notch3 signaling as 59R1. Receptor activation was determined in luciferase-based assays. PC3 tumor cells were transiently transfected with a human or mouse Notch receptor (human Notch2, murine Notch2, human Notch3, or murine Notch3) and […] inducible reporter construct. Transfected cells were incubated with different concentrations of 59R1 or 59R5 antibody in the presence of passively immobilized DLL4-Fc protein. Notch receptor activation was determined by measuring luciferase activity.

[9] = each of the various tumor types, relative to control

For “59R1: human IgG2 antibody binding Notch2 and Notch3; heavy and light chain SEQ ID NO:16 and 18; ATCC PTA-9547”, the “Fold 1416286_at (Rgs4)” value [1] was −1.83, the “Fold 1417466_at (Rgs5)” value [1] was −4.03 and the “Fold 1417714_x_at (Hba-al/Hba-a2)” value [1] was −1.92. The “Fold 1418829_a_at (Eno2)” value [1] was 1.54, the “Fold 1419302_at (Heyl)” value [1] was −1.77 and the “Fold 1420872_at (Gucy1b3)” value [1] was −3.06. The “Fold 1420941_at (Rgs5)” value [1] was −2.99, the “Fold 1420942_s_at (Rgs5)” value [1] was −4.23 and the “Fold 1421964_at (Notch3)” value [1] was −1.91. For the same substance, the “Fold 1422789_at (Aldh1a2)” value [1] was −2.17, the “Fold 1428361_x_at (Hba-al/Hba-a2)” value [1] was −1.73 and the “Fold 1434141_at (Gucy1a3)” value [1] was −4.18. The “Fold 1449280_at (Esm1)” value [1] was 1.56, the “Fold 1449632_s_at (Fkbp10)” value [1] was −1.63 and the “Fold 1451501_a_at (Ghr)” value [1] was −1.66. The “Fold 1452590_a_at (Plac9)” value [1] was −1.62, the “Fold 1459713_s_at (Tmem16a)” value [1] was −7.28 and the “M4 melanoma tumor growth” value [2] was “inhibited”. The “hJAG2-induced Notch2 reporter activity” value [3] was “inhibit”, the “hypoxic regions (anti-pimonidazole antibody) versus 1B711 treated tumors” value ([4]; Colo-205 and PE13 tumors) was “significantly more pronounced” and the “number of CD31-positive cells” value ([4]; treated tumors versus 1B711) was “remained unchanged”. For the same substance, the “effect on down-regulation of angiopoietin-1 and angiopoietin-2 in the stroma of the T1 tumor” value ([5]; absence of estrogen treatment (T1 ne)) was “abrogated”, the “angiopoietin-1 (angpt1) expression in stroma (TaqMan)” value ([5]; breast cancer models) was “down-regulated in the stroma of a number of the breast cancer models” and the “angiopoietin-2 (angpt2) expression in stroma (TaqMan)” value ([5]; breast cancer models) was “down-regulated in the stroma of a number of the breast cancer models”. For the same substance, the “notch3 expression in stroma (TaqMan)” value [5, 9] was “down-regulated”, the “rgs5 expression in stroma (TaqMan)” value [5, 9] was “down-regulated” and the “angpt1 and angpt2 expression in the stroma of the T1 model” value ([5]; estrogen treatment used (T1 e)) was “down-regulated”. The “heyl expression in stroma (TaqMan)” value ([5]; xenograft models, relative to control) was “downregulated in the stroma of each of the xenograft models except B34”, the “PN4 tumor growth, combination of 59R1 and gemcitabine” value ([6]; 59R1 10 mg/kg twice per week and gemcitabine 40 mg/kg once per week) was “inhibited” and the “PN4 tumor growth compared to control” value ([6]; established tumors, 15 mg/kg once per week) was “significantly reduced”. For the same substance, the “Fold 1417466_at (Rgs5)” value [7] was −3.39, the “Fold 1417714_x_at (Hba-al/Hba-a2)” value [7] was −8.37 and the “Fold 1420872_at (Gucy1b3)” value [7] was −1.94. The “Fold 1420942_s_at (Rgs5)” value [7] was −5.52, the “Fold 1421964_at (Notch3)” value [7] was −3.26 and the “Fold 1434141_at (Gucy1a3)” value [7] was −2.49. For the same substance, the “Fold 1451501_a_at (Ghr)” value [7] was −1.83 and the “Fold 1452590_a_at (Plac9)” value [7] was −1.61.

In the case of “59R5: human antibody that specifically binds human Notch 2 and human Notch 3; heavy and light chain SEQ ID NO:49 and 18; ATCC PTA-10170”, the “ligand-induced activation of murine Notch3 receptor signaling” value [8] is reported as “blocked”.
